Laboratory results as given in patent publication US8119633B2, “Substituted sulfonamide compounds” (Gruenenthal GmbH, priority 2007, dated 2012).

How the values were obtained:
[1] = target: T1, human bradykinin receptor 1 (B1R) (Homo sapiens, UniProt P46663); assay: Functional study on the bradykinin receptor 1 (B1R), human: FLIPR Ca2+ influx assay; format: cell-based; details: test substance 10 μM; CHO K1 cells transfected with human B1R; Lys-Des-Arg9-bradykinin at EC80; Ca2+ influx (Fluo-4, FLIPR); read-out: B1R antagonism, human [10 μM] % inhibition
T1 construct: expressed in transfected cells; host or cells: CHO K1 cells
T1 sequence (P46663 1-353): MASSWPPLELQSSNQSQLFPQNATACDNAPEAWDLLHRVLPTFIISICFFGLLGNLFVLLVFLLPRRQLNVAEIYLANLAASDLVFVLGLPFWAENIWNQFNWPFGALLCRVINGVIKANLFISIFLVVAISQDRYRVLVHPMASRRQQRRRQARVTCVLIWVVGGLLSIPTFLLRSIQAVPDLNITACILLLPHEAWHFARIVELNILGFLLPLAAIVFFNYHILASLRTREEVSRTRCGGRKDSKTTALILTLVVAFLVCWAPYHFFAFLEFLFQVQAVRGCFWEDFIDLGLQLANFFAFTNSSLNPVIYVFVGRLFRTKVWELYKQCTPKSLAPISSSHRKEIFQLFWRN
Excerpt: Functional Study on the Human Bradykinin Receptor 1 (B1R)
(§1) The agonistic or antagonistic action of substances can be determined on the bradykinin receptor 1 (B1R) of the species human and rat using the following assay. According to this assay, the Ca^2+ influx through the channel is quantified with the aid of a Ca^2+-sensitive dye (Fluo-4 type, Molecular Probes Europe BV, Leiden, Netherlands) using a Fluorescent Imaging Plate Reader (FLIPR, Molecular Devices, Sunnyvale, USA).
(§2) Chinese hamster ovary cells (CHO K1 cells) which have been stably transfected with the human B1R gene (hB1R cells) or with the B1R gene of the rat (rB1R cells) are used. For functional studies, the cells are plated out on black 96-well plates having a clear base (BD Biosciences, Heidelberg, Germany or Greiner, Frickenhausen, Germany) in a density of 20,000-35,000 cells/well. The cells are incubated overnight at 37° C. and with 5% CO2 in culture medium (hB1R cells: Nutrient Mixture Ham's F12, Gibco Invitrogen GmbH, Karlsruhe, Germany or DMEM, Sigma-Aldrich, Taufkirchen, Germany; rB1R cells: D-MEM/F12, Gibco Invitrogen GmbH, Karlsruhe, Germany), with 10 vol. % FBS (fetal bovine serum, Gibco Invitrogen GmbH, Karlsruhe, Germany or PAN Biotech GmbH, Aidenbach, Germany).
(§3) On the following day, the cells are loaded for 60 minutes at 37° C. with 2.13 μM Fluo-4 (Molecular Probes Europe BV, Leiden, Netherlands) in HBSS buffer (Hank's buffered saline solution, Gibco Invitrogen GmbH, Karlsruhe, Germany) with 2.5 mM probenecid (Sigma-Aldrich, Taufkirchen, Germany) and 10 mM HEPES (Sigma-Aldrich, Taufkirchen, Germany). The plates are then washed twice with HBSS buffer, and HBSS buffer additionally containing 0.1% BSA (bovine serum albumin; Sigma-Aldrich, Taufkirchen, Germany), 5.6 mM glucose and 0.05% gelatin (Merck KGaA, Darmstadt, Germany) is added to the plates. After incubation for a further 20 minutes at room temperature, the plates are inserted into the FLIPR for Ca^2+ measurement. Alternatively, washing is carried out with buffer A (15 mM HEPES, 80 mM NaCl, 5 mM KCl, 1.2 mM CaCl2, 0.7 mM MgSO4, 2 g/l glucose, 2.5 mM probenecid) followed by loading with buffer A with added 2.5 μM Fluo-4 and 0.025% Pluronic F127 (Sigma-Aldrich, Taufkirchen, Germany). The cells are then washed twice with buffer A and incubated for 30 minutes at room temperature with buffer A additionally containing 0.05% BSA and 0.05% gelatin and are then inserted into the FLIPR for Ca^2+ measurement.
(§4) The Ca^2+-dependent fluorescence is measured before and after the addition of substances (λex=488 nm, λem=540 nm). Quantification is carried out by measuring the highest fluorescence intensity (FC, fluorescence counts) over time.
(§5) The FLIPR protocol consists of two substance additions. Test substances (10 μM) are first pipetted onto the cells and the Ca^2+ influx is compared with the control (hB1R: Lys-Des-Arg^9-bradykinin>=0.5 nM; rB1R: Des-Arg^9-bradykinin 10 μM). This gives the activation in %, based on the Ca^2+ signal after addition of Lys-Des-Arg^9-bradykinin (>=0.5 nM) or Des-Arg^9-bradykinin (10 μM).
(§6) After 10-20 minutes' incubation, Lys-Des-Arg^9-bradykinin (hB1R) or Des-Arg^9-bradykinin (rB1R) is applied in the concentration of the EC80, and the influx of Ca^2+ is likewise determined.
(§7) Antagonists lead to suppression of the Ca^2+ influx. The % inhibition compared with the maximum achievable inhibition is calculated.
(§8) In order to determine the IC50 value, the substances are added in various concentrations. Duplicate or triplicate determinations (n=2 or n=3) are carried out, and these are repeated in at least one further independent experiment (N>=2).

[2] = target: T2, bradykinin receptor 1 (B1R) of the rat (Rattus norvegicus, UniProt P97583); assay: Functional study on the bradykinin receptor 1 (B1R), rat: FLIPR Ca2+ influx assay; format: cell-based; details: test substance 10 μM; CHO K1 cells transfected with rat B1R; Des-Arg9-bradykinin at EC80; Ca2+ influx (Fluo-4, FLIPR); read-out: B1R antagonism, rat [10 μM] % inhibition
T2 construct: expressed in transfected cells; host or cells: CHO K1 cells
T2 sequence (P97583 1-337): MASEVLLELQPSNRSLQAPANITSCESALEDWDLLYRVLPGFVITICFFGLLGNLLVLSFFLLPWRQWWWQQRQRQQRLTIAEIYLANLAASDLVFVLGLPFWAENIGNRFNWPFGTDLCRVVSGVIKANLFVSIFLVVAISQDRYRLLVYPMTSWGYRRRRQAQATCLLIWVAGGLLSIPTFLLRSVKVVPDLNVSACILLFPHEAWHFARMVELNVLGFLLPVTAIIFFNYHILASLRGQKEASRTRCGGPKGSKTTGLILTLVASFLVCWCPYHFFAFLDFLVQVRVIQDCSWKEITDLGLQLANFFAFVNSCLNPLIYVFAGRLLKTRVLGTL
Excerpt: as §1, §2, §3, §4, §5, §6, §7, §8

SMILES | inhibition at 10 µM [1] [%] | inhibition at 10 µM [2] [%]
COc1ccc(S(=O)(=O)N2CCc3ccccc3C2CC(=O)NCCC2CCC(C(c3ccc(Cl)cc3)N(C)C)CC2)cc1 (centres unmarked) [Example 22, N-(2-{4-[(4-chloro-phenyl)-dimethylamino-methyl]-cyclohexyl}-ethyl)-2-[2-(4-methoxy-benzenesulfonyl)-1,2,3,4-tetrahydro-isoquinolin-1-yl]-acetamide] | 70.3 | 34
CN(C)C(c1ccc(Cl)cc1)C1CCC(CCNC(=O)CC2c3ccccc3CCN2S(=O)(=O)c2ccc(Cl)c(Cl)c2)CC1 (centres unmarked) [Example 33, N-(2-{4-[(4-chloro-phenyl)-dimethylamino-methyl]-cyclohexyl}-ethyl)-2-[2-(3,4-dichloro-benzenesulfonyl)-1,2,3,4-tetrahydro-isoquinolin-1-yl]-acetamide] | 42.2 | 18
CN(C)C(c1ccccc1)C1CCC(CCNC(=O)Cc2ccccc2N(C)S(=O)(=O)c2ccc(Cl)c(Cl)c2)CC1 (centres unmarked) [Example 98, 2-(2-(3,4-dichloro-N-methylphenylsulfonamido)phenyl)-N-(2-(4-((dimethylamino)(phenyl)methyl)cyclohexyl)ethyl)acetamide] | 66.8 | -8
COc1ccc(S(=O)(=O)N2CCc3ccccc3C2CC(=O)NCC2CCC(C(c3ccccc3)N(C)C)CC2)cc1 (centres unmarked) [Example 17, N-[4-(dimethylamino-phenyl-methyl)-cyclohexylmethyl]-2-[2-(4-methoxybenzenesulfonyl)-1,2,3,4-tetrahydro-isoquinolin-1-yl]-acetamide] | 36.6 | 41
CN(C)C(CCc1ccccc1)C1CCC(CCNC(=O)C2Cc3ccccc3N2S(=O)(=O)c2ccc(Cl)c(Cl)c2)CC1 (centres unmarked) [Example 97, 1-(3,4-dichlorophenylsulfonyl)-N-(2-(4-(1-(dimethylamino)-3-phenylpropyl)cyclohexyl)ethyl)indoline-2-carboxamide] | 16 | 11
COc1ccc(S(=O)(=O)N2CCc3ccccc3C2CC(=O)NCC2CCC(C(c3ccc(Cl)cc3)N(C)C)CC2)cc1 (centres unmarked) [Example 20, N-{4-[(4-chloro-phenyl)-dimethylamino-methyl]-cyclohexylmethyl}-2-[2-(4-methoxy-benzenesulfonyl)-1,2,3,4-tetrahydro-isoquinolin-1-yl]-acetamide] | 38.8 | 28
CN(C)C(c1ccccc1)C1CCC(CNC(=O)C2Cc3ccccc3N2S(=O)(=O)c2ccc(Cl)c(Cl)c2)CC1 (centres unmarked) [Example 95, 1-(3,4-dichlorophenylsulfonyl)-N-((4-((dimethylamino)(phenyl)methyl)cyclohexyl)methyl)indoline-2-carboxamide] | 18.6 | -15
CN(C)C(c1ccc(F)cc1)C1CCC(NC(=O)CC2c3ccccc3CCN2S(=O)(=O)c2ccc(Cl)c(Cl)c2)CC1 (centres unmarked) [Example 27, 2-(2-(3,4-dichlorophenylsulfonyl)-1,2,3,4-tetrahydroisoquinolin-1-yl)-N-(4-((dimethylamino)(4-fluorophenyl)methyl)cyclohexyl)acetamide] | 103 | 78
CN(C)C(c1ccc(F)cc1)C1CCC(CNC(=O)c2ccccc2N(C)S(=O)(=O)c2ccc(Cl)c(Cl)c2)CC1 (centres unmarked) [Example 40, 2-[(3,4-dichloro-benzenesulfonyl)-methyl-amino]-N-{4-[dimethylamino-(4-fluoro-phenyl)-methyl]-cyclohexylmethyl}-benzamide] | 17.1 | 20
COc1ccc(S(=O)(=O)N2CCc3ccccc3C2CC(=O)NCC2CCC(C(c3ccc(F)cc3)N(C)C)CC2)cc1 (centres unmarked) [Example 19, N-{4-[dimethylamino-(4-fluoro-phenyl)-methyl]-cyclohexylmethyl}-2-[2-(4-methoxy-benzenesulfonyl)-1,2,3,4-tetrahydro-isoquinolin-1-yl]-acetamide] | 42.7 | 41
CN(C)C(CCc1ccccc1)C1CCC(NC(=O)C2Cc3ccccc3N2S(=O)(=O)c2ccc(Cl)c(Cl)c2)CC1 (centres unmarked) [Example 93, 1-(3,4-dichlorophenylsulfonyl)-N-(4-(1-(dimethylamino)-3-phenylpropyl)cyclohexyl)indoline-2-carboxamide] | 15.5 | -24
CN(C)C(c1ccccc1)C1CCC(NC(=O)CC2c3ccccc3CCN2S(=O)(=O)c2ccc(Cl)c(Cl)c2)CC1 (centres unmarked) [Example 10, 2-[2-(3,4-dichloro-benzenesulfonyl)-1,2,3,4-tetrahydro-isoquinolin-1-yl]-N-[4-(dimethylamino-phenyl-methyl)-cyclohexyl]-acetamide] | 70.1 | 0
COc1ccc(S(=O)(=O)N2CCc3ccccc3C2CC(=O)NC2CCC(C(c3ccccc3)N(C)C)CC2)cc1 (centres unmarked) [Example 9, N-[4-(dimethylamino-phenyl-methyl)-cyclohexyl]-2-[2-(4-methoxy-benzenesulfonyl)-1,2,3,4-tetrahydro-isoquinolin-1-yl]-acetamide] | 105 | 0
COc1ccc(S(=O)(=O)N2CCc3ccccc3C2CC(=O)NC2CCC(C(c3ccc(F)cc3)N(C)C)CC2)cc1 (centres unmarked) [Example 14, N-{4-[dimethylamino-(4-fluoro-phenyl)-methyl]-cyclohexyl}-2-[2-(4-methoxybenzenesulfonyl)-1,2,3,4-tetrahydro-isoquinolin-1-yl]-acetamide] | 86.9 | 75
COc1ccc(S(=O)(=O)N2CCc3ccccc3C2CC(=O)NCCC2CCC(C(c3cccc(F)c3)N(C)C)CC2)cc1 (centres unmarked) [Example 23, N-(2-{4-[dimethylamino-(3-fluoro-phenyl)-methyl]-cyclohexyl}-ethyl)-2-[2-(4-methoxy-benzenesulfonyl)-1,2,3,4-tetrahydro-isoquinolin-1-yl]-acetamide] | 64 | 57
CN(C)C(CCc1ccccc1)C1CCC(CNC(=O)c2ccccc2N(C)S(=O)(=O)c2ccc(Cl)c(Cl)c2)CC1 (centres unmarked) [Example 39, 2-[(3,4-dichloro-benzenesulfonyl)-methyl-amino]-N-[4-(1-dimethylamino-3-phenyl-propyl)-cyclohexylmethyl]-benzamide] | 79.3 | 42
